Data as given in patent US8207136B2, “Nucleoside compounds and methods of use thereof” (The Board of Trustees of the University of Illinois, priority 2005, dated 2012).
Where two headings read alike, the source gives them in different places.

Assays:
RNA polymerase II = biological target: T1, RNA polymerase II (Homo sapiens, UniProt P24928); experiment: Nuclear run-on assay, nuclei isolated from untreated HCT-116 cells then treated; format: biochemical; conditions: 50 μM ARC, 50 μM DRB or 2 μg/ml α-amanitin
T1 construct: nuclei were isolated from normally growing untreated HCT-116 cells and treated with each of these agents; endogenous in cells; host or cells: nuclei of HCT-116 colon cancer cells
Experimental: Run-on assays with isolated nuclei were performed as described. Briefly, cells treated with the indicated agents were lysed with hypotonic buffer (10 mM Tris-HCl pH 7.4, 10 mM NaCl and 35 mM MgCl2) and nuclei collected by centrifugation and resuspended in nuclear storage buffer (50 mM HEPES pH 8.0, 5 mM MgCl2, 0.5 mM DTT, 1 mg/ml BSA and 25% (v/v) glycerol) at about 5×10^8 nuclei/ml and stored at −80° C. Transcription reactions were performed in 200 μl volume consisting of 1×10^7 nuclei in the presence of 0.12 M KCl, 7 mM Mg(Ac)2, 25 μCi of [^32P]GTP, 500 μM ATP, UTP and CTP at 30° C. Samples were collected at various time points (18 μl/time point—0, 5, 10, 20 and 30 min) and the reaction terminated by the addition of 57 μl of Sarkosyl solution (1% Sarkosyl, 0.1 M Tris pH 8.0, 0.1 M NaCl, 10 mM EDTA and 200 μg/ml tRNA). The stopped reactions were transferred to Whatman DE81 paper, and washed four times with wash buffer (5% K2HPO4 and 0.3% Na4P2O7) for 10 min, followed by a 5-min water wash. Then the paper was briefly rinsed with 95% ethanol and allowed to dry completely. Radiation was quantitated using a liquid scintillation counter.
In order to evaluate the ability of ARC to bind to and inhibit RNA polymerase II directly (like α-amanitin) or indirectly (like DRB), nuclei were isolated from normally growing untreated HCT-116 cells and treated with each of these agents, and then assayed for rate of transcription by nuclear run-on assay.

p53 = experiment: Gel shift assay with purified p53 phosphorylated by P-TEFb; format: binding; conditions: purified p53, different concentrations
Experimental: Either purified p53 protein or nuclear extracts were used in the gel shift assays. For preparation of nuclear extracts, cells treated either with DMSO or different agents (doxorubicin, ARC and actinomycin D) were harvested 24 hours later and lysed in hypotonic buffer (10 mM HEPES pH 7.9, 1.5 mM MgCl2, 10 mM KCl, 0.2 mM PMSF, 0.5 mM DTT, 1 mM Na3VO4, 1 mM NaF, 1 mM Aprotinin and 1 mM Leupeptin), nuclei pelleted and treated with high-salt buffer (20 mM HEPES pH 7.9, 20% (v/v) glycerol, 1.5 mM MgCl2, 0.5 M KCl, 0.2 mM EDTA, 0.2 mM PMSF, 0.5 mM DTT, 1 mM Na3VO4, 1 mM NaF, 1 mM Aprotinin and 1 mM Leupeptin). Nuclear extracts (10 μg) or purified p53 protein (100 ng) were incubated with 0.5 ng of p53 consensus double-stranded oligos (5′-TACAGAACATGTCTAAGCATGCTGGGGACT-3′; Santa Cruz Biotechnology) that were labeled with [γ^32P]ATP. As a control, anti-p53 antibody (PAb421, EMD Biosciences) was used to supershift the p53/DNA complex. The reaction mixtures were resolved on a 4% acrylamide DNA-retardation gel, dried and exposed to X-ray film in the presence of intensifying screen.
In order to evaluate this activity, an in vitro kinase assay was performed with purified p53 protein and P-TEFb in the presence of different concentrations of ARC.

[1] = system: SV40-transformed MRC-5 human fetal lung fibroblasts; experiment: Apoptosis assays in SV40-transformed MRC-5 fibroblasts; format: cell-based; conditions: 24 hours
Experimental: Immunoblotting was performed as described with antibodies specific for p53 (sc-126 HRP; Santa Cruz), hdm2 (sc-965; Santa Cruz), p21 (556431; BD Pharmingen), Sp1 (sc-59; Santa Cruz), survivin (sc-10811; Santa Cruz), phospho RNA polymerase II (4735; Cell Signaling), total RNA polymerase II (8WG16; a gift from Dr. Schlegel, University of Illinois at Chicago), α-tubulin (T9026; Sigma), cleaved caspase-3 (9664; Cell Signaling), caspase-9 (9502; Cell Signaling) and β-actin (A5441; Sigma) antibodies.
Apoptosis was detected either by DAPI (4′,6-diamidino-2-phenylindole) staining or by Flow Cytometry after PI (Propidium Iodide) staining. For DAPI staining, all treatments (DMSO or ARC) were done in triplicates in 6-well plates and cells were stained with DAPI and visualized by fluorescent microscopy. Four random fields for each sample were photographed and at least 500 cells per field were counted to estimate apoptosis. The data is represented as mean±Standard deviation (sd).
The ability of ARC to induce apoptosis in wild type and SV40-transformed MRC-5 human fetal lung fibroblasts was evaluated. Twenty-four hours after treatment with ARC, transformed fibroblasts underwent robust apoptosis (around 50% and 70%, respectively, with 5 and 10 μM of ARC) (FIGS. 4A and B). […] The transformed cell types may be more dependent on the survivin levels for their survival than their wild type counterparts and thus the reduction in these levels could be lethal to these cells.

HUVECs = experiment: Cord formation assay; format: cell-based; conditions: Homo sapiens, HUVEC, 24 hours, averages from three trials
Experimental: Different angiogenesis assays such as cord formation assay, motility assay and proliferation inhibition assay were performed at the developmental therapeutics program (DTP) branch of NCI (NCI/DTP) as described. HUVECs were used for all the assays. Taxol and TNP-470 were used as positive control for the assays.
For cord formation assay, HUVECs were plated on a three dimensional layer of Matrigel, where the cells formed cord-like structures. Later, the cells were treated with vehicle (DMSO) or different concentrations of ARC for 24 hours, after which cord formation was quantitated as a function of cord junctions and cord length.

Akt = Akt Ser473 phosphorylation immunoblot in mAkt-overexpressing cells; format: cell-based; conditions: Rat1a-mAkt and MCF7-mAkt cells, 24 hours
Experimental: FIG. 9. ARC interferes with the Akt pathway by inhibiting phosphorylation of Akt. Rat1a and MCF-7 cells overexpressing myristoylated-Akt (mAkt) were treated with the indicated concentration of ARC for 24 hours, after which the cell lysates were used for immunoblotting with total and phospho-Ser473 specific Akt antibodies.
Another survival pathway that protects mitochondrial integrity is the Akt (AKT8 virus oncogene cellular homolog) pathway. In order to see if this pathway is affected, two different cell lines that overexpress myrisotylated-Akt (Rat1a-mAkt, and MCF7-mAkt) were used. Myristolated-Akt is a membrane-targeted Akt, a kinase involved in anti-apoptotic signaling.

NNc1c(C(N)=O)c2c(N)ncnc2n1[C@@H]1O[C@H](CO)[C@@H](O)[C@H]1O [ARC, 4-amino-6-hydrazino-7-beta-D-ribofuranosyl-7H-pyrrolo[2,3-d]-pyrimidine-5-carboxamide]
rate of transcription, agent added to isolated nuclei (RNA polymerase II): did not affect the rate of transcription | DNA binding of p53 phosphorylated by P-TEFb (p53): inhibited this process in a dose-dependent manner | apoptosis (DAPI staining) ([1]; 5 μM): around 50% | apoptosis (DAPI staining) ([1]; 10 μM): ~70% | cleaved caspase-3 [1]: appearance of cleaved caspase-3 was observed | survivin levels ([1]; wild type and SV40-transformed MRC-5 fibroblasts): further reduced | IC50 (HUVECs; read-out: IC50, cord junctions): ~345 nM | IC50 (HUVECs; read-out: IC50, cord length): ~382 nM | Ser473 phosphorylation on Akt (Akt): decrease in Ser473 phosphorylation on Akt
